{
  "source": "patent US6420563B1",
  "about": "“Small molecule modulators of G protein-coupled receptor six” (Arena Pharmaceuticals, Inc., priority 1998, dated 2002)",
  "key": {"GPR6": {"biological_target": "T1, GPR6 (Homo sapiens, UniProt P46095)", "T1 construct": "expressed in transfected cells; 293 cells are used elsewhere", "T1 sequence (P46095 whole entry)": "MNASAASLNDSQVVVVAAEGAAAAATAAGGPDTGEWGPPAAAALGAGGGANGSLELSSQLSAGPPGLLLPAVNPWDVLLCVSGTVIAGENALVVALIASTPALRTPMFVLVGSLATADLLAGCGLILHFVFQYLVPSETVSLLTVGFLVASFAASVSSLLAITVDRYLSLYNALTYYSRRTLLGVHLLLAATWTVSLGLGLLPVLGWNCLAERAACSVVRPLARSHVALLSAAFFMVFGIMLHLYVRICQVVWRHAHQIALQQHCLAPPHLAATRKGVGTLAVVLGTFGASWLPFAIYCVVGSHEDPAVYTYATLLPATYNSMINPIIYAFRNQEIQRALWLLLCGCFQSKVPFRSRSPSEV", "assay": "membrane-based cyclic AMP confirmation assay (Example 4C)", "assay_type": "biochemical", "in_short": "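Membranes from stably transfected cells (0.60 mg/ml protein, 30 μg/well) in 20 mM HEPES pH 7.4, 100 mM NaCl, 10 mM MgCl2 were incubated 30 min at room temperature with compound at 12 μM final. cAMP then measured by Flash Plate adenylyl cyclase detection after 2-20 h, scintillation counting.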"}, "[1]": {"assay": "Food/water intake and body weight in 24-hour food-deprived rats, IP administration", "assay_type": "in vivo, rat", "conditions": "for body weight gain: vehicle 20 g", "protocol": "An in vivo assessment of GPR6 inverse agonist was accomplished by determining the effects of ARE112 on food intake after food deprivation in rats. Food deprivation was used to induce higher than normal eating behavior (e.g., controlvehicle-treated animals were hyperphagic).\nThe animals (male Sprague-Dawley rats were used for the following experiments) were food deprived for 24 hr, and then injected intraperitoneally (IP) with 0, 6.75, 13.5, 27 and 54 mg/kg of compound ARE112. After 30 min, rats were introduced to standard rat chow pellets and observed thereafter for a period of 6.5 hours post-injection."}},
  "note": "Where “and” joins values, the source holds several entries; their conditions need not be identical. Equal entries are not always repeated. Where two headings read alike, the source gives them in different places.",
  "data": [
    {"compound": "O=C(N=C1SSC2=NCCN21)c1cccs1", "note": "[ARE112, N-(5,6-dihydro-3H-imidazo[2,1-c]-1,2,4-dithiazol-3-ylidene)-thiophen-2-carboxamide]", "values": [
      {"measurement": "IC50", "setting": "GPR6; assay number 1-3 for compound ARE112, read-out: IC50 Values (nM) cAMP", "result": "88.3 nM and 77.4 nM and 99 nM"},
      {"measurement": "IC50", "setting": "GPR6; mean +/- standard deviation (number of assays in brackets), read-out: IC50 Values Cyclic AMP Assay Example 4C", "result": 100, "unit": "nM"},
      {"measurement": "body weight gain", "setting": "[1]; 13.5 mg/kg IP", "result": 11, "unit": "g"},
      {"measurement": "body weight gain", "setting": "[1]; 27 mg/kg IP", "result": "no weight gain"},
      {"measurement": "decrease in water intake", "setting": "[1]; 54 mg/kg IP", "result": 5, "unit": "fold"},
      {"measurement": "food consumed (cumulative food intake)", "setting": "[1]; 54 mg/kg IP, 1.5 hours after injection, vehicle about 6 grams", "result": 3, "unit": "g"},
      {"measurement": "food consumed (cumulative food intake)", "setting": "[1]; 54 mg/kg IP, 6.5 hours post-injection, vehicle up to 14 g", "result": 4, "unit": "g"},
      {"measurement": "body weight gain", "setting": "[1]; 54 mg/kg IP", "result": "no weight gain"}
    ]}
  ]
}
